Test results as given in article PMC5513091, “A novel Alzheimer’s disease drug candidate targeting inflammation and fatty acid metabolism” (Alzheimer's Research & Therapy, 2017).

Tests used:
[1] = target: Aβ1–42 (Homo sapiens, UniProt P05067); assay: Thioflavin S Aβ1–42 aggregation assay; assay type: biochemical; details: data not shown
[2] = test system: Aβ plaque; set-up: method as in PMID 27149904; details: early study; cited from earlier work
[3] = test system: hippocampal gene expression; assay: Whole-transcriptome RNA-sequencing of hippocampus; assay type: in vivo, mice
Description: RNA was isolated from the hippocampus using the RNeasy Plus Universal Mini Kit (QIAGEN, Valencia, CA, USA). RNA sequencing (RNA-seq) libraries were prepared using the TruSeq Stranded mRNA Sample Prep Kit (Illumina, San Diego, CA, USA) according to the manufacturer’s instructions. Briefly, polyadenylation RNA was selected using oligo(dT) beads. Messenger RNA was then fragmented and reverse-transcribed. Complementary DNA (cDNA) was end-repaired, adenylated, and ligated with Illumina adapters with indexes. Adapter-ligated cDNA was then amplified. Libraries were pooled and sequenced single-end 50 bp on the HiSeq 2500 platform (Illumina). Sequencing reads were quality-tested using FastQC and aligned to the mm10 mouse genome using STAR Aligner version 2.4k. Mapping was carried out using default parameters (up to ten mismatches per read and up to nine multimapping locations per read). Raw gene expression was quantified across all gene exons by RNA-seq using the top-expressed isoform as a proxy for gene expression, and differential gene expression was carried out using the edge R package version 3.6.8, using replicates to compute within-group dispersion. p Values are adjusted to control the false discovery rate (FDR) by the method of Benjamini and Hochberg. Differentially expressed genes were defined as having an FDR <0.05 and a log2 fold change >1. […]

[4] = test system: APPswe/PS1∆E9 transgenic mice; assay: Two-day water maze; assay type: in vivo; details: AD mice fed 200 ppm in chow for 3 months from 10 months of age; day 2
Description: (§1) The APPswe/PS1∆E9-transgenic mice were characterized previously. Line 85 mice carry two transgenes, the mouse/human chimeric APPswe, linked to Swedish familial AD and human PS1∆E9. At 10 months of age, female transgenic mice were fed a defined diet (Harlan Teklad; Envigo, Indianapolis, IN, USA) with and without CAD-31 (200 ppm, approximately 10 mg/kg/day). Treatment continued for 3 months, followed by behavior testing and tissue harvesting.
Spatial memory was determined using the 2-day water maze with 13-month-old APPswe/PS1∆E9 transgenic mice fed CAD-31 for the previous 3 months. The protocol was adapted from a publication by Gulinello and colleagues. The goal platform was positioned 45 cm from the outside wall in the northwest quadrant of the maze. Day 1 involved training the mice (n = 10 per group) to find the platform using cues located around the pool within a 180-second time frame. This training involved a series of visible platform trials where mice were tracked using EthoVision software (Noldus Information Technology, Leesburg, VA, USA). […] The time it took each mouse to find the hidden platform was measured as escape latency. All trials were recorded using the EthoVision software, and statistics were computed using InStat software (GraphPad Software, La Jolla, CA, USA) by an individual blinded to the experiment.

[5] = Ames test
[6] = Body weights and food consumption during feeding study; assay type: in vivo, mice; details: 200 ppm in diet for 3 months, measured weekly; data not shown
Description: as §1

[7] = test system: HT22; assay: In vitro ischemia; assay type: cell-based; details: Mus musculus, HT-22, read-out: Half-maximal effective concentration, In vitro ischemia
Description: (§2) The various phenotypic screening assays were conducted as previously described. Briefly, HT-22, primary cortical neurons, or MC65 was plated and exposed to the different environmental stresses. Cells were treated with varying concentrations of CAD-31, and half-maximal effective concentration (EC50) was determined on the basis of cell viability.
(§3) • An assay that mimics the dramatic loss of neurotrophic support in the old brain is the trophic factor withdrawal assay. Primary embryonic day 18 cortical cells are plated at low density in serum-free medium. At low density, the cells die within 2 days; they can be rescued by combinations of neurotrophic growth factors, but not by one alone ([19] and unpublished data). […] BDNF is a molecule that is also involved in promoting memory and neurogenesis and is reduced in the brain with age and in AD, as well as in other neurological disorders. BDNF has long been considered a drug target for AD [23]. […] A reduction in GSH is a common denominator of old age and essentially all chronic central nervous system (CNS) diseases. J147 and CAD-31 both effectively reduce oxidative stress, with EC50 of 6 nM and 20 nM, respectively. • CAD-31 also prevents loss of energy metabolism that leads to neuron cell death in an in vitro ischemia model. […]

[8] = test system: human neural precursor cells (NPCs); set-up: method as in PMID 27149904; details: compared with J147; cited from earlier work
[9] = test system: primary cortical neurons; assay: Oxytosis; assay type: cell-based; details: Primary cortical neuron; read-out: Half-maximal effective concentration, Oxytosis
Description: as §2, §3

[10] = test system: APPswe/PS1ΔE9 mice; set-up: method as in PMID 27149904; details: old APPswe/PS1ΔE9 mice fed from an early age, preventive strategy; cited from earlier work

Aβ1–42, sequence (P05067 672-713 limits assumed): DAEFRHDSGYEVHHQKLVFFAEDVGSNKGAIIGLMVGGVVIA

**Q.** With `Cc1ccc(N(/N=C/c2cccc(OC(F)(F)F)c2)C(=O)C(F)(F)F)c(C)c1` [CAD-31] as the compound, how does the “binding to and direct inhibition of Aβ1–42 aggregation” value [1] read?
**A.** Its value is “Neither J147 nor CAD-31 binds to and directly inhibits Aβ1–42 aggregation”.

**Q.** What about the “Aβ plaque density or size” value [2] of the same compound?
**A.** Its value is “no effect on Aβ plaque density or size”.

**Q.** And the “number of significant genes changed” value ([3]; AD model, CAD-31-treated vs AD)?
**A.** The value was 730.

**Q.** What about the “number of significant genes changed” value ([3]; WT model, CAD-31-treated vs control) of the same compound?
**A.** Its value is 29.

**Q.** What about the “escape latency, hidden platform trial T1” value [4] of the same compound?
**A.** Its value is “significantly reduces the escape latency relative to AD mice to control levels”.

**Q.** What about the EC50 at 10 µM [5] of the same compound?
**A.** Its EC50 at 10 µM is over 10000 nM.

**Q.** What about the “activity in the Ames test” value ([5]; 10 μM) of the same compound?
**A.** The value was “showed no sign of acute toxicity or activity”.

**Q.** What about the “body weights and food consumption” value [6] of the same compound?
**A.** Its value is “no significant differences between the groups”.

**Q.** And the EC50 [7]?
**A.** The EC50 was 47 nM.

**Q.** And the neurogenic activity [8]?
**A.** Its neurogenic activity is “enhanced neurogenic activity over J147”.

**Q.** What about the EC50 [9] of the same compound?
**A.** The EC50 was 20 nM.

**Q.** And the “division of NPCs in the subventricular zone” value [10]?
**A.** The value was “stimulates the division of NPCs in the subventricular zone”.
